Here are results for five compounds from patent US9662360B2, “Treatment of herpes, pseudomonas, staph, and hepatitis” (priority 2008, dated 2017).

For data set [1] the following is noted: cited from earlier work.
A further data set has as its system HSV-1. The data set is described as follows: In vitro HSV-1 plaque inhibition on fibroblasts. Type of data set: cell-based. Here is the method:
Laboratory testing was undertaken at the University Of Chicago, Clinical Microbiology Laboratories to determine inhibitory activity in vitro of the medical treatment and composition (medicine). The laboratory testing was conducted by the Associate Director, PhD, and Associate Professor of Pathology. […] It was stated by the pathologist, that they had tested “hundreds” of other compounds and had never seen anything as good as what this compound did. The following are the tests of the medicine that were conducted and results that were obtained at The University of Chicago. For ease of interpreting some of the scientific data and test results, the following definitions apply: • “MEM” pertains to Minimal Essential Medium. This is the culture medium used in laboratories for growing the cells upon which tests were run. • “Fibroblast” is a mesenchyme human cell (a cell found in connective tissue, blood, bone, lymphatics, and cartilage). • “IC50” pertains to the Inhibitory Concentrate. […] 1. Three 24-compartment plates were inoculated with fibroblasts. […] There were four control compartments on each plate containing MEM without drug. 2. The growth media was removed from the compartments and 200 ul of HSV-1 was added to each compartment of the upper half of each plate. HSV-1 was diluted 1:5000 (2.0 ul of stock HSV-1 in 10 mL of MEM). […] Also, 200 ul of HSV-2 was added to each compartment of the lower half of each plate. HSV-2 was diluted 1:2,000 (5.0 ul of stock HSV-2 in 10 mL of MEM). The virus titer was 6×10^5 per mL. 3. The plates were incubated at 37° C. for two hours. 4. The inoculum was removed and one mL of the MEM containing Drugs #1-3 were added to the four compartments. The concentration of the drug compared to the MEM is indicated below. 1. Three plates were used to screen the three drug preparations. […] There were four control compartments on each plate containing MEM without drug. 2. The growth media was removed from the compartments and 200 ul of HSV-1 was added to each compartment of the upper half of each plate. HSV-1 was diluted 1:5000 (2.0 ul of stock HSV-1 in 10 mL of MEM). […] 3. The plates were incubated at 37° C. for four hours. 4. The inoculum was removed and one mL of the MEM containing drugs #1A-3A were added to the four compartments. 1. Four plates were used to screen the four drug preparations. […] There were four control compartments on each plate containing MEM without drug. 2. The growth media was removed from the compartments and 200 ul of HSV-1 was added to each compartment of the upper two rows of each plate. HSV-1 was diluted 1:5000 (2.0 ul of stock HSV-1 in 10 mL of MEM). […] Also, 200 ul of HSV-2 was added to each compartment of the lower half of each plate. HSV-2 was diluted 1:2,000 (5.0 ul of stock HSV-2 in 10 mL of MEM). The virus titer was 6×10^5 per mL. 3. The plates were incubated at 37° C. for four hours. 4. The inoculum was removed and one mL of the MEM containing drugs #1-4 was added to the four compartments.

The test system of the next data set is HSV-2. The data set is described as follows: In vitro HSV-2 plaque inhibition on fibroblasts. Format: cell-based. Here is the method:
Laboratory testing was undertaken at the University Of Chicago, Clinical Microbiology Laboratories to determine inhibitory activity in vitro of the medical treatment and composition (medicine). The laboratory testing was conducted by the Associate Director, PhD, and Associate Professor of Pathology. […] It was stated by the pathologist, that they had tested “hundreds” of other compounds and had never seen anything as good as what this compound did. The following are the tests of the medicine that were conducted and results that were obtained at The University of Chicago. For ease of interpreting some of the scientific data and test results, the following definitions apply: • “MEM” pertains to Minimal Essential Medium. This is the culture medium used in laboratories for growing the cells upon which tests were run. • “Fibroblast” is a mesenchyme human cell (a cell found in connective tissue, blood, bone, lymphatics, and cartilage). • “IC50” pertains to the Inhibitory Concentrate. […] Three 24-compartment plates were inoculated with fibroblasts. […] There were four control compartments on each plate containing MEM without drug. 2. The growth media was removed from the compartments and 200 ul of HSV-1 was added to each compartment of the upper half of each plate. […] Also, 200 ul of HSV-2 was added to each compartment of the lower half of each plate. […] The virus titer was 6×10^5 per mL. 3. The plates were incubated at 37° C. for two hours. 4. The inoculum was removed and one mL of the MEM containing Drugs #1-3 were added to the four compartments. The concentration of the drug compared to the MEM is indicated below. […] Four plates were used to screen the four drug preparations. […] There were four control compartments on each plate containing MEM without drug. 2. The growth media was removed from the compartments and 200 ul of HSV-1 was added to each compartment of the upper two rows of each plate. […] Also, 200 ul of HSV-2 was added to each compartment of the lower half of each plate. […] The virus titer was 6×10^5 per mL. 3. The plates were incubated at 37° C. for four hours. 4. The inoculum was removed and one mL of the MEM containing drugs #1-4 was added to the four compartments.

Data set [2] deals with transmission of virus from chronically infected H9 cells to ME180 cervical epithelial cells. The data set is described as follows: Topical microbicide assay (p24 ELISA). Type of data set: cell-based, HIV. Conditions: qualitative. Here is the method:
MEI 180 cervical epithelial cells were plated in the interior walls of a 96-well flat bottom microtiter plate at a density of […] cells per well and incubated overnight. Chronically infected H9 cells wee treated with 200 μg/ml mitomycin C in complete medium for one hour, washed extensively and resuspended at 4×10^5 per ml. […] Antiviral compounds and chronically infected cells (2×10^4) were added to each well containing ME180 cells and incubated for 6 hours. Following co-cultivation the monolayer was washed extensively and fresh medium added. Medium was removed and fresh medium added at 24 and 48 hours post-infection to remove dead lymphocytes. On day 6 post-infection, supernatant samples were removed and analyzed for virus content by p24 ELISA.
Background: In an ELISA, binding on a coated surface is turned into a signal by an enzyme label.

“And” between values parts separate entries of the source, which are not always exact repeats. Identical values can stand only once.

Regarding `OCc1ccccc1` [Benzyl alcohol], in data set [1], the solubility in water is given as 4 g/100 mL.

Benzalkonium chloride [Drug #1A]: the plaques entry was “toxic” in the data set with HSV-1 (HSV-1, 1:2); “toxic” in the data set with HSV-1 (HSV-1, 1:4); “toxic” with HSV-1 (HSV-1, 1:8); “toxic” in the data set with HSV-1 (HSV-1, 1:16); “toxic” in the data set on HSV-1 (HSV-1, 1:32).

Regarding Benzalkonium chloride [Drug #1B], the plaques entry with HSV-1 (HSV-1, 1:20) is “toxic”; in the data set with HSV-1 (HSV-1, 1:40), “toxic”; in the data set on HSV-1 (HSV-1, 1:80) it was “toxic”; in the data set with HSV-1 (HSV-1, 1:160), “toxic”; in the data set on HSV-1 (HSV-1, 1:320) it was 15?* and 18?*; with HSV-2 (HSV-2, 1:20) it was “toxic”. The plaques result is “toxic” in the data set with HSV-2 (HSV-2, 1:40); “toxic” with HSV-2 (HSV-2, 1:80); “toxic” in the data set with HSV-2 (HSV-2, 1:160); 21 and 17 in the data set on HSV-2 (HSV-2, 1:320). The compound further yielded an Average plaques in the data set on HSV-2 (HSV-2, 1:320) of 19.

On to Dextran sulfate, for which the “activity in topical microbicide assay” value in data set [2] is “expected level of activity”.

For dextran, the “activity in topical microbicide assay” value in data set [2] is listed as “expected level of activity”.
